Where two headings read alike, the source gives them in different places.
Legend:
GABAA α1β3γ2 = conditions: Table S4a, cited from earlier work
GABAA α2β3γ2 = conditions: Table S4a, cited from earlier work
GABAA α5β3γ2 = conditions: Table S4a, read-out: Ki α5β3γ2, cited from earlier work
healthy elderly humans = conditions: cited from earlier work
non-impaired rodents = test: Cognitive performance in non-impaired rodents; type: in vivo; conditions: data not shown
GABAA α3β3γ2 = conditions: Table S4a, cited from earlier work
[1] = test system: binding sites of [3H]-Ro 15-4513 in the hippocampus; conditions: similar experiments; cited from earlier work
CYP1A2 = conditions: rats, reduced plasma exposure on chronic dosing; cited from earlier work
human α6β3γ2 = target: T1, human α6β3γ2 (Homo sapiens, UniProt P18507+Q16445); conditions: previously determined; read-out: Kd of the radiolabel; cited from earlier work
T1 construct: expressed in transfected cells; host or cells: HEK293-EBNA, transient
T1 sequence (Q16445 20-453): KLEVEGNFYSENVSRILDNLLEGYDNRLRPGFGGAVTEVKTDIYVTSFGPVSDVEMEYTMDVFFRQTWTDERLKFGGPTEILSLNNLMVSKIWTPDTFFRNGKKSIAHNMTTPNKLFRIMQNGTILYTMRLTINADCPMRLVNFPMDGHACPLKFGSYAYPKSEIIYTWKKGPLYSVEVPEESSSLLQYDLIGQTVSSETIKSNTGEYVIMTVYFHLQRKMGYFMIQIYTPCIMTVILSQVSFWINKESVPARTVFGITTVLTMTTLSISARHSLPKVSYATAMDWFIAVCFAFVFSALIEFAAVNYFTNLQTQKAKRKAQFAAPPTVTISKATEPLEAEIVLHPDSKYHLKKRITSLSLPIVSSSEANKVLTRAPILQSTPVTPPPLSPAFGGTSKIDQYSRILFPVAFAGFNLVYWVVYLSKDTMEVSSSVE
T1 sequence (P28472 26-473 partner): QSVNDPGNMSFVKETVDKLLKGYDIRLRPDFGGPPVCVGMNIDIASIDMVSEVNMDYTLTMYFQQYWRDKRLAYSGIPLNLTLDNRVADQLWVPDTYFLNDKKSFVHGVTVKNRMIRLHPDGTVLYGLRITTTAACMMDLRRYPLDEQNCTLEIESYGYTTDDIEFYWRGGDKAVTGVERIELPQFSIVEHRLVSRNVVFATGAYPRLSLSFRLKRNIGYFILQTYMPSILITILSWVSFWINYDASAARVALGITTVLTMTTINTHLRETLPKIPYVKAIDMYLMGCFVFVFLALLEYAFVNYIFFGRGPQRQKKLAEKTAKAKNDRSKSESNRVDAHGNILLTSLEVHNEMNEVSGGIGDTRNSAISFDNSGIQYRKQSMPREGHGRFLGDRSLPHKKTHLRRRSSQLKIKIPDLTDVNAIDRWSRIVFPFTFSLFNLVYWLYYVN
T1 sequence (P18507 40-475): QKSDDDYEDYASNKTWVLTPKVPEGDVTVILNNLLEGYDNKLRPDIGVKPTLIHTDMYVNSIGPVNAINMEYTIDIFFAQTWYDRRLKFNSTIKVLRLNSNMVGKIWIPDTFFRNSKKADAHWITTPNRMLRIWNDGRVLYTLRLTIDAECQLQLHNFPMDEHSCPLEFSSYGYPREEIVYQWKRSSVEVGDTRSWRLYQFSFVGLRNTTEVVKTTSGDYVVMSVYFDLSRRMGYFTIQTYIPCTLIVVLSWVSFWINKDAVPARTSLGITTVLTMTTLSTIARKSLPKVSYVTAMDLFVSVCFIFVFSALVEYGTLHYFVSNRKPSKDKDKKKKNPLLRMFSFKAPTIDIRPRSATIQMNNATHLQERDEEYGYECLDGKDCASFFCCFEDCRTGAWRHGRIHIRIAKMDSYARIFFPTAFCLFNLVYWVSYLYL

healthy volunteers = test: Resting state EEG in healthy volunteers; type: in vivo, human; conditions: midazolam single dose, 1 h post dose
Procedure: Full details of the protocol can be found in the Supplementary Information. The study was registered on October 2, 2014 with clinicaltrials.gov identifier NCT02254759. The DDI study was approved by the National Research Ethics Service (NRES) Committee South Central—Berkshire B. EEG was included in the study as one of the pharmacodynamic outcome measures.
Resting state EEG (4 min eyes open, 4 min eyes closed) was recorded at 4 days 1 h and 4 h after dosing at morning (similar time at baseline day). […] The EEG recording from day 16 is not reported here. The EEG technician kept the subject alert (vigilance controlled resting state condition). As soon as drowsiness patterns appeared (slow rolling eye movements, attenuated alpha rhythm replaced by low amplitude), the subject was aroused by auditory stimuli (tapping or clicking).
EEG was recorded from 19 Ag/AgCl electrodes arranged according to the 10/20 system and mounted in an elastic cap. EOG was recorded simultaneously from five electrodes. […]
Power spectral estimates were derived for logarithmically scaled frequencies with a logarithmic frequency smoothing using Morlet Wavelets with a spectral smoothing of 1/2 octave (f/σf = 5.83). […] For analyses of “relative power” the power was normalized to 1 across the frequency range analyzed. […]

human GABAA α5β3γ2 = human GABAA α5β3γ2 (Homo sapiens, UniProt P18507+P31644); test: Two-electrode voltage clamp in Xenopus oocytes, current induced by EC10 of GABA; type: cell-based; design: expressed in transfected cells; host or cells: Xenopus laevis oocytes, cRNA injection; conditions: 1000 nM, n = 12, not shown
human GABAA α5β3γ2, sequence (P31644 32-462): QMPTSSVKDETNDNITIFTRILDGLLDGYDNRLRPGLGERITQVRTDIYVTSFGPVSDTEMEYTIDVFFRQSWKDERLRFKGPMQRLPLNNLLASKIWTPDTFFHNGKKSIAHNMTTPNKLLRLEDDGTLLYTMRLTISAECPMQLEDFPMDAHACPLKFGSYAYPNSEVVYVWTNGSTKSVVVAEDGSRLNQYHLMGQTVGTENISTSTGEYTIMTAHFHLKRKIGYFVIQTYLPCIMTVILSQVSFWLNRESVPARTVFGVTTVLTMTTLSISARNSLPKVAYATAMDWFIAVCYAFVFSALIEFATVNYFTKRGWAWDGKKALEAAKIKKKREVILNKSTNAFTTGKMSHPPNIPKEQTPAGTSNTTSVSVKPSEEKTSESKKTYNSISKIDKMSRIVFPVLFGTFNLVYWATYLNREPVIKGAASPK
human GABAA α5β3γ2, sequence (P28472 26-473 partner): as the sequence (P28472 26-473 partner) above
human GABAA α5β3γ2, sequence (P18507 40-475): as the sequence (P18507 40-475) above
Procedure: Freshly prepared oocytes of maturation stage VI were bought from Ecocyte Bioscience (Castrop-Rauxel, Germany) and, after overnight delivery, plated into 96-well plates (Greiner no. 651101) for microinjection on a ROBOOCYTE R16 system (Multichannel Systems MCS GmbH, Reutlingen, Germany). Each oocyte was injected with roughly 50 nL of RNA solution. The solution for expressing receptors composed of the human α1, β2 and γ2 subunits contained 3 pg/nL of α1 and β2 RNA and 15 pg/nL of γ2 RNA. The solution for expressing human α2β3γ2 receptors contained 2.5 pg/nL of α2 and β3 RNA, 5 pg/nL of γ2 RNA and 10 pg/nL of GABARAP RNA. The solution for expressing human α3β3γ2 receptors contained 1.3 pg/nL of α3 and β3 RNA and 6.5 pg/nL of γ2 RNA. The solution for expressing human α5β3γ2 receptors contained 1.3 pg/nL of α5 and β3 RNA and 13 pg/nL of γ2 RNA. […] After the microinjection the oocytes were kept at 20 °C temperature until the electrophysiological experiment. Experiments were done 3 to 5 days later on the ROBOOCYTE instrument which employs the two-microelectrode voltage-clamp technique for membrane voltage control and current measurement. […] During current recording and compound testing the cell membrane was constantly clamped to − 80 mV. Current signals were recorded and stored on a PC-type computer using the ROBOOCYTE software.
During the microinjection and up to the electrophysiological experiment the oocytes were kept in a solution containing 88 mM NaCl, 1 mM KCl, 2.5 mM NaHCO3, 10 mM HEPES (AppliChem GmbH, Darmstadt, Germany), 0.82 MgSO4, 0.33 mM Ca(NO3)2, 0.33 mM CaCl2, 100 U/mL penicillin (GIBCO, ThermoFisher Scientific) and 100 µg/mL streptomycine (GIBCO, ThermoFisher Scientific). The pH was adjusted to 7.5. During the experiment the voltage-clamped oocyte was constantly superfused by a solution containing 90 mM NaCl, 1 mM KCl, 5 mM HEPES (AppliChem), 1 mM MgCl2 and 1 mM CaCl2 (pH 7.4). GABA and test compounds were added to this solution. GABA concentrations were chosen according to previously determined concentration–response relations for the different human GABAA receptor subunit combinations. Concentrations evoking approximately 10% of a maximal response were selected, i.e., 8 µM for α1β2γ2, 6 µM for α2β3γ2, 10 µM for α3β3γ2 and 5 µM for α5β3γ2. Solutions containing GABA or test compounds were freshly prepared at least every second day. […] Compounds were further diluted in DMSO and finally in extracellular saline to reach a DMSO concentration of 0.1%. The same amount of DMSO was added to the control solutions without test compounds.
During the experiment the solutions were fed into the well containing the voltage-clamped oocyte via Teflon tubings connected by electromagnetic valves which allowed rapid switching between different solutions (controlled by the ROBOCYTE software). Approximately 1–2 min after impaling an oocyte and switching to voltage-clamp mode GABA was applied for 90 s to record a control response. Thereafter the oocyte was washed with saline for 160 s followed by another 90 s GABA application. Then 30 s after the onset of the second GABA application the system switched to a solution containing GABA plus the test compound. Each oocyte was used for testing one concentration of a single test compound (for α5β3γ2: 1 nM: n = 8, 10 nM: n = 8, 100 nM: n = 7, 1000 nM: n = 7).
In this case each GABA application lasted 110 s and the rest period between the two GABA applications was 190 s long.
On each 96-well plate 3–6 oocytes were used for testing a known NAM at the BZD binding site, β-CCM (FG7106), as a positive control. […] Maximally effective concentrations of β-CCM were used for each subunit combination, i.e., 100 nM β-CCM for α1β2γ2, 300 nM for α2β3γ2 or α3β3γ2 and 1 µM for α5β3γ2.

preclinical species = test system: preclinical species; design: method as in PMID 15918586; conditions: cited from earlier work
humans = conditions: experimental medicine study; cited from earlier work

Q: With `Cc1cc(-c2nncc3c(C(C)(C)C)c(OCc4ncnn4C)nn23)no1` [MRK-016, 3-tert-butyl-7-(5-methylisoxazol-3-yl)-2-(1-methyl-1H-1,2,4-triazol-5-ylmethoxy)-pyrazolo[1,5-d]-[1,2,4]triazine] as the compound, how does the Ki (GABAA α1β3γ2; ref Atack et al. 2009) read?
A: 0.8 nM

Q: What about the Ki (GABAA α2β3γ2; ref Atack et al. 2009) of the same compound?
A: 0.9 nM

Q: What about the Ki (GABAA α5β3γ2; ref Atack et al. 2009) of the same compound?
A: 1.4 nM

Q: What about the “reason why development was stopped” value (healthy elderly humans) of the same compound?
A: poor tolerability in healthy elderly humans

Q: For `FC(F)c1ncn2c1Cn1ncnc1-c1cc(Br)ccc1-2` [RO4938581], which “enhancement of cognitive performance” value (non-impaired rodents) is on record?
A: have not shown enhancement of cognitive performance

Q: And the Ki (GABAA α1β3γ2; ref Ballard et al., 2008)?
A: 174 nM

Q: What about the Ki (GABAA α2β3γ2; ref Ballard et al., 2008) of the same compound?
A: 185 nM

Q: What about the Ki (GABAA α3β3γ2; ref Ballard et al., 2008) of the same compound?
A: 80 nM

Q: What about the Ki (GABAA α5β3γ2; ref Ballard et al., 2008) of the same compound?
A: 4.6 nM

Q: And the “binding sites of [3H]-Ro 15-4513 in the hippocampus occupied by the compound” value [1]?
A: up to 90%

Q: And the CYP1A2 autoinduction (CYP1A2)?
A: strong CYP1A2 autoinduction properties

Q: For `[3H]C([3H])([3H])N1Cc2c(C(=O)OCC)ncn2-c2ccc(N=[N+]=[N-])cc2C1=O` [Ro 15-4513, ethyl 8-azido-6-oxo-5-(tritritiomethyl)-4H-imidazo[1,5-a][1,4]benzodiazepine-3-carboxylate], which Kd (human α6β3γ2) is on record?
A: 1.83 nM

Q: Which “change of relative EEG power in the beta band” value (healthy volunteers) does the source give for `Cc1ncc2n1-c1ccc(Cl)cc1C(c1ccccc1F)=NC2` [midazolam, reference compound] here?
A: 32.2 ± 7.04%

Q: What about the “increase of the GABA-induced current” value (human GABAA α5β3γ2) of the same compound?
A: 145 ± 9%

Q: Which Ki (GABAA α1β3γ2; ref Dawson et al., 2006) does the source give for `Cc1cc(-c2nnc3c4ccccc4c(OCc4cn(C)nn4)nn23)no1` [α5IA] here?
A: 0.9 nM

Q: What about the Ki (GABAA α2β3γ2; ref Dawson et al., 2006) of the same compound?
A: 0.6 nM

Q: What about the Ki (GABAA α3β3γ2; ref Dawson et al., 2006) of the same compound?
A: 0.6 nM

Q: And the Ki (GABAA α5β3γ2; ref Dawson et al., 2006)?
A: 0.7 nM

Q: What about the “reason why development was stopped” value (preclinical species) of the same compound?
A: renal toxicity in preclinical species

Q: What about the “alcohol-induced impairment in word list recall” value (humans) of the same compound?
A: reversed an alcohol-induced impairment in word list recall

From paper PMC8032764 (Scientific Reports, 2021)
